Assay results published in paper PMC5336470, “Insights into the mechanism of membrane pyrophosphatases by combining experiment and computer simulation” (Structural Dynamics, 2017).

Target: T1, VrPPase (Vigna radiata, UniProt P21616)
T1 construct: VrPPase reconstituted into liposomes (proteoliposomes); homodimer
T1 sequence (P21616 2-766): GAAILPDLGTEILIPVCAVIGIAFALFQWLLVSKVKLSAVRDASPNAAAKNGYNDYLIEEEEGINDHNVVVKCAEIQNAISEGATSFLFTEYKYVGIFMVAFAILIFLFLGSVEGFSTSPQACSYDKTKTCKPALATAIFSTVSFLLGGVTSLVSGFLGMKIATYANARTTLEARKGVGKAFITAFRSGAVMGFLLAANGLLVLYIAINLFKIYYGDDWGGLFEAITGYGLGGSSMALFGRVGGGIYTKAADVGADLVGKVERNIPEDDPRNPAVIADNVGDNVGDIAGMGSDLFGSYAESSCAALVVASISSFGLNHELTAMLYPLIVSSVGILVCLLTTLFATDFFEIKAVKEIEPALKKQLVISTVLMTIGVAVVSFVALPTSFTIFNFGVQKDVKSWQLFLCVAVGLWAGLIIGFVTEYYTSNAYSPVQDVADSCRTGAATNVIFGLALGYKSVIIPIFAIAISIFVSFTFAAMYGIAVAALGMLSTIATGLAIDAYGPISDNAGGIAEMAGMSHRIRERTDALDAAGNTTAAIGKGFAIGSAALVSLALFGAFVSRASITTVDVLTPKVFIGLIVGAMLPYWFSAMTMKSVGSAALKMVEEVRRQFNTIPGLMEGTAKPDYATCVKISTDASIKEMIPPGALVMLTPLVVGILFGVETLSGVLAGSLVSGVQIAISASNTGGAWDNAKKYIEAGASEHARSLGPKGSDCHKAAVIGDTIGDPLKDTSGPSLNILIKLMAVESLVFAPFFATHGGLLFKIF
Assay: SURFE2R N1 electrometric proton-pumping current, proteoliposomes
Type: biochemical
Conditions: 200 uM K2HPO4 as control, 10 uM CCCP as protonophore control

O=P(O)(O)NP(=O)(O)O [imidodiphosphate]
SURFE2R N1 electrometric proton-pumping current, proteoliposomes (50 uM IDP, non-hydrolysable substrate analogue): IDP-bound VrPPase specifically pumps protons

O=P(O)(O)CP(=O)(O)O [methylene diphosphonate]
SURFE2R N1 electrometric proton-pumping current, proteoliposomes (50 uM MEDP, non-hydrolysable substrate analogue): VrPPase in the presence of another substrate analogue, methylene diphosphonate (MEDP), similarly produces a change

O=P(O)(O)OP(=O)(O)O [pyrophosphate]
SURFE2R N1 electrometric proton-pumping current, proteoliposomes (50 uM K4PPi): Addition of CCCP to membrane-embedded VrPPase in the presence of PPi reduces the ion-pumping current
